Results on 40 compounds are retold here after ChEMBL document CHEMBL3046393, “3D-QSAR studies of thiosemicarbazone and thiocarbamoylpyrazoline antiamebics” (Med Chem Res, 2013).

The subject of this test is Entamoeba histolytica. The test is described as follows: Antiamoebic activity against trophozoite stage of Entamoeba histolytica HM-1:IMSS assessed as parasite growth inhibition after 72 hr by microdilution assay. Format: functional, organism-based.
Regarding `CCN(CC)C(=S)N1CCC(c2cccc(Br)c2)=N1`, the IC50 was 1.2 µM.

For `S=C(N1CCC(Cc2ccccc2)CC1)N1CCC(c2cccc(Br)c2)=N1`, the IC50 was 1.4 µM.

In the case of `S=C(N1CCC(Cc2ccccc2)CC1)N1CCC(c2ccccc2)=N1`, the IC50 amounted to 2.3 µM.

Consider `S=C(N1CCN(c2ccccc2)CC1)N1CCC(c2cccc(Cl)c2)=N1`, for which the IC50 was 1.2 µM.

Turning to `S=C(N1CCN(c2ccccc2)CC1)N1CCC(c2ccccc2)=N1`, the IC50 stood at 3.1 µM.

`S=C(N1CCN(c2ccccc2)CC1)N1CCC(c2cccc(Br)c2)=N1`: the IC50 was 1.6 µM.

On to `CC1CCN(C(=S)N2CCC(c3cccc(Cl)c3)=N2)CC1`, for which the IC50 was 2.8 µM.

Regarding `CC1CCN(C(=S)N2CCC(c3cccc(Br)c3)=N2)CC1`, the IC50 worked out at 3.6 µM.

As to `CC1CCN(C(=S)N2CCC(c3ccccc3)=N2)CC1`, the IC50 worked out at 4.8 µM.

Consider `S=C(NCc1ccccc1Cl)N1CCC(c2cccc(Cl)c2)=N1`, for which the IC50 was 2.2 µM.

As for `S=C(NCc1ccccc1Cl)N1CCC(c2cccc(Br)c2)=N1`, the IC50 was found to be 2.6 µM.

Consider `S=C(NCc1ccccc1Cl)N1CCC(c2ccccc2)=N1`, for which the IC50 stood at 7.6 µM.

Take `S=C(NC1CCCCCCC1)N1CCC(c2cccc(Br)c2)=N1`: the IC50 is 2 µM.

As for `S=C(NC1CCCCCCC1)N1CCC(c2cccc(Cl)c2)=N1`, the IC50 turned out to be 1.5 µM.

Turning to `S=C(NC1CCCC1)N1CCC(c2cccc(Cl)c2)=N1`, the IC50 was determined as 3.7 µM.

Turning to `S=C(NC1CCCCC1)N1CCC(c2ccccc2)=N1`, the IC50 worked out at 5.2 µM.

As to `S=C(NC1CCCCC1)N1CCC(c2cccc(Br)c2)=N1`, the IC50 amounted to 3.1 µM.

Regarding `S=C(NC1CCCCC1)N1CCC(c2cccc(Cl)c2)=N1`, the half-inhibitory concentration (IC50) stood at 2.4 µM.

Regarding `S=C(NC1CCCCCCC1)N1CCC(c2ccccc2)=N1`, the IC50 is 2.5 µM.

For the compound `S=C(NC1CCCC1)N1CCC(c2cccc(Br)c2)=N1`, the IC50 amounted to 4.2 µM.

In the case of `CCCN(CCC)C(=S)N1CCC(c2cccc(Cl)c2)=N1`, the IC50 worked out at 0.6 µM.

For the compound `S=C(NC1CCCC1)N1CCC(c2ccccc2)=N1`, the IC50 amounted to 6.5 µM.

For `CCCN(CCC)C(=S)N1CCC(c2cccc(Br)c2)=N1`, the IC50 stood at 0.8 µM.

For the compound `CCCN(CCC)C(=S)N1CCC(c2ccccc2)=N1`, the IC50 worked out at 2 µM.

For the compound `CCN(CC)C(=S)N1CCC(c2cccc(Cl)c2)=N1`, the IC50 worked out at 1 µM.

Consider `CCN(CC)C(=S)N1CCC(c2ccccc2)=N1`, for which the IC50 came to 4.2 µM.

For the compound `CCCCN(C)C(=S)N1CCC(c2cccc(Cl)c2)=N1`, the half-maximal inhibitory concentration (IC50) stood at 0.7 µM.

Take `CCCCN(C)C(=S)N1CCC(c2ccccc2)=N1`: the IC50 was 5.7 µM.

Turning to `CCCCN(C)C(=S)N1CCC(c2cccc(Br)c2)=N1`, the IC50 stood at 2.4 µM.

On to `CC(C)CNC(=S)N1CCC(c2cccc(Cl)c2)=N1`, for which the IC50 came to 5 µM.

`CC(C)CNC(=S)N1CCC(c2cccc(Br)c2)=N1`: the IC50 was found to be 6.1 µM.

`CCCCNC(=S)N1CCC(c2cccc(Cl)c2)=N1`: the concentration for half-maximal inhibition (IC50) was determined as 12.3 µM.

Take `CC(C)CNC(=S)N1CCC(c2ccccc2)=N1`: the IC50 worked out at 11.2 µM.

As to `CCCCNC(=S)N1CCC(c2cccc(Br)c2)=N1`, the 50% inhibitory concentration (IC50) worked out at 14.2 µM.

Consider `CCCCNC(=S)N1CCC(c2ccccc2)=N1`, for which the IC50 worked out at 23.3 µM.

With `CC(C)NC(=S)N1CCC(c2cccc(Cl)c2)=N1`, the IC50 turned out to be 12.2 µM.

For `CCCNC(=S)N1CCC(c2cccc(Br)c2)=N1`, the IC50 came out at 8.5 µM.

On to `CC(C)NC(=S)N1CCC(c2ccccc2)=N1`, for which the IC50 was 23 µM.

Take `CCCNC(=S)N1CCC(c2ccccc2)=N1`: the IC50 came to 14 µM.

Regarding `CC(C)/N=C(\S)N1CCC(c2cccc(Br)c2)=N1`, the IC50 amounted to 15.2 µM.

A word on the IC50: it is the concentration at which inhibition is half-maximal.
